Test results taken from US20170114029A1, “TREATMENT OF CHAGAS DISEASE” (UNIVERSITY OF DUNDEE, priority 2014, published 2017).
Converted amounts (≈) assume the structure as drawn.

test system: T. cruzi Tulahuen strain C2C4; test: Activity against T. cruzi (beta-galactosidase expressing parasites in L-6 cells); format: cell-based, Trypanosoma cruzi; conditions: Trypanosoma cruzi, TULAHUEN, L6, Benznidazole used as control, same assay; read-out: IC50 of control
Procedure: Activity against T. cruzi. Rat skeletal myoblasts (L-6 cells) were seeded in 96-well microtitre plates at 2000 cells/well in 100 μL RPMI 1640 medium with 10% FBS and 2 mM 1-glutamine. After 24 h the medium was removed and replaced by 100 μl per well containing 5000 trypomastigote forms of T. cruzi Tulahuen strain C2C4 containing the […] (Lac Z) gene (Buckner et al. 1996). After 48 h the medium was removed from the wells and replaced by 100 μl fresh medium with or without a serial drug dilution of eleven 3-fold dilution steps covering a range from 100 to 0.002 μg/ml. After 96 h of incubation the plates were inspected under an inverted microscope to assure growth of the controls and sterility. Then the substrate CPRG/Nonidet (50 μl) was added to all wells. A color reaction developed within 2-6 h and could be read photometrically at 540 nm. Data were analyzed with the graphic programme Softmax Pro (Molecular Devices), which calculated IC50 values by linear regression (Huber 1993) from the sigmoidal dose inhibition curves. Benznidazole is used as control (IC50 0.5±0.2 ug/ml). • Buckner, F. S., C. L. Verlinde, A. C. La Flamme, and W. C. Van Voorhis. 1996. Efficient technique for screening drugs for activity against Trypanosoma cruzi using parasites expressing beta-galactosidase, p. 2592-2597, vol. 40. • Huber, W. Koella, J. C. 1993. A comparison of the three methods of estimating EC50 in studies of drug resistance of malaria parasites. Acta Trop. 55, 257-261.

O=C(Cn1ccnc1[N+](=O)[O-])NCc1ccccc1 [Benznidazole, reference compound] showed an IC50 of 0.5 ± 0.2 mg/L (≈ 1.92 µM).

same assay, conditions: Trypanosoma cruzi, TULAHUEN, L6, in Rattus norvegicus, 96 h, read-out: Activity (IC50)

Compound CC(=O)Nc1ccc2[nH]c(=O)n(Cc3cccc(C(F)(F)F)c3)c(=O)c2c1 [Example 43, N-(2,4-dioxo-3-(3-(trifluoromethyl)benzyl)-1,2,3,4-tetrahydroquinazolin-6-yl)acetamide] has an IC50 of 0.804 mg/L (≈ 2.13 µM).

same assay, conditions: Trypanosoma cruzi, TULAHUEN, L6, in Rattus norvegicus, 96 h, trypomastigotes in rat skeletal myoblasts (L-6 cells), 96 h incubation, CPRG/Nonidet read at 540 nm; read-out: Activity (IC50)

First: CC(=O)Nc1ccc2[nH]c(=O)n(CCC3CCCCC3)c(=O)c2c1 [Example 3, N-[3-(2-Cyclohexylethyl)-2,4-dioxo-1,2,3,4-tetrahydroquinazolin-6-yl]acetamide]
Second: CC(=O)Nc1ccc2[nH]c(=O)n(CCC3CCCC3)c(=O)c2c1 [Example 42, N-(3-(2-cyclopentylethyl)-2,4-dioxo-1,2,3,4-tetrahydroquinazolin-6-yl)acetamide]
The IC50 of the first is 4.4-fold lower: 0.162 mg/L (≈ 0.492 µM) for the first, 0.713 mg/L (≈ 2.26 µM) for the second.

First: CC(=O)Nc1ccc2[nH]c(=O)n(CCCC3CCCCC3)c(=O)c2c1 [Example 5, N-[3-(3-Cyclohexyl-propyl)-2,4-dioxo-1,2,3,4-tetrahydro-quinazolin-6-yl]-acetamide]
Second: CC(C)(C)C(=O)Nc1ccc2[nH]c(=O)n(CCC3CCCCC3)c(=O)c2c1 [Example 15b, N-(3-(2-cyclohexylethyl)-2,4-dioxo-1,2,3,4-tetrahydroquinazolin-6-yl)pivalamide]
The IC50 of the first is 16-fold lower: 0.163 mg/L (≈ 0.475 µM) for the first, 2.64 mg/L (≈ 7.11 µM) for the second.

First: CC(C)(C)C1CCC(n2c(=O)[nH]c3ccc(-c4cccnc4)cc3c2=O)CC1 (centres unmarked) [Example 22, 3-(4-(tert-butyl)cyclohexyl)-6-(pyridin-3-yl)quinazoline-2,4(1H,3H)-dione]
Second: CC(C)(C)C1CCC(n2c(=O)[nH]c3ccc(-c4ccncc4)cc3c2=O)CC1 (centres unmarked) [Example 21c, 3-(4-(tert-butyl)cyclohexyl)-6-(pyridin-4-yl)quinazoline-2,4(1H,3H)-dione]
The IC50 of the first is 2.9-fold higher: 2.63 mg/L (≈ 6.97 µM) for the first, 0.892 mg/L (≈ 2.36 µM) for the second.

First: CC(=O)Nc1ccc2[nH]c(=O)n(C(CC3CCCCC3)C(N)=O)c(=O)c2c1 (centres unmarked) [Example 7, 2-(6-Acetamido-2,4-dioxo-1,4-dihydroquinazolin-3(2H)-yl)-3-cyclohexylpropanamide]
Second: O=C(Nc1ccc2[nH]c(=O)n(CCC3CCCCC3)c(=O)c2c1)c1ccccc1 [Example 14c, N-(3-(2-Cyclohexylethyl)-2,4-dioxo-1,2,3,4-tetrahydroquinazolin-6-yl)benzamide]
The IC50 of the first is 11-fold higher: 63.6 mg/L (≈ 171 µM) for the first, 5.88 mg/L (≈ 15 µM) for the second.

CCNc1ccc2c(c1)c(=O)n(CCC1CCCCC1)c(=O)n2CC [Example 12b, 3-(2-cyclohexylethyl)-1-ethyl-6-(ethylamino)quinazoline-2,4(1H,3H)-dione] and CC(=O)N(C)c1ccc2c(c1)c(=O)n(CCC1CCCCC1)c(=O)n2C [Example 11, N-(3-(2-cyclohexylethyl)-1-methyl-2,4-dioxo-1,2,3,4-tetrahydroquinazolin-6-yl)-N-methylacetamide] are within 1.5-fold of each other in IC50: 7.7 mg/L (≈ 22.4 µM) for the first, 6.44 mg/L (≈ 18 µM) for the second.

First: CC(=O)Nc1ccc2[nH]c(=O)n(CCC(C)C)c(=O)c2c1 [Example 4, N-(3-Isopentyl-2,4-dioxo-1,2,3,4-tetrahydroquinazolin-6-yl)acetamide]
Second: COCCn1c(=O)[nH]c2ccc(NC(C)=O)cc2c1=O [Example 6, N-(3-(2-methoxyethyl)-2,4-dioxo-1,2,3,4-tetrahydroquinazolin-6-yl)acetamide]
The IC50 of the first is 3.4-fold lower: 2.81 mg/L (≈ 9.71 µM) for the first, 9.62 mg/L (≈ 34.7 µM) for the second.

CC(C)C1CCC(n2c(=O)[nH]c3ccc(N)cc3c2=O)CC1 (racemic) [25 (rac), 6-Amino-3-(4-isopropylcyclohexyl)-1H-quinazoline-2,4-dione] and CC[C@H]1CC[C@H](n2c(=O)[nH]c3ccc(N)cc3c2=O)CC1 [24 (trans), 6-Amino-3-(trans-4-ethyl-cyclohexyl)-1H-quinazoline-2,4-dione] are within 1.5-fold of each other in IC50: 0.028 mg/L (≈ 0.0929 µM) for the first, 0.035 mg/L (≈ 0.122 µM) for the second.

First: CC(=O)Nc1ccc2[nH]c(=O)n(CCC3=CCCCC3)c(=O)c2c1 [Example 1c, N-[3-(2-Cyclohex-1-enyl-ethyl)-2,4-dioxo-1,2,3,4-tetrahydro-quinazolin-6-yl]-acetamide]
Second: CCC[C@H]1CC[C@@H](n2c(=O)[nH]c3ccc(NC(C)=O)cc3c2=O)CC1 [Example 57, N-(2,4-Dioxo-3-((1r,4s)-4-propylcyclohexyl)-1,2,3,4-tetrahydroquinazolin-6-yl)acetamide]
The IC50 of the first is 12-fold higher: 0.692 mg/L (≈ 2.11 µM) for the first, 0.06 mg/L (≈ 0.175 µM) for the second.

Going from CC(=O)Nc1ccc2[nH]c(=O)n(C3C4CC5CC(C4)CC3C5)c(=O)c2c1 (centres unmarked) [Example 51, N-(3-((1r,3r,5r,7r)-adamantan-2-yl)-2,4-dioxo-1,2,3,4-tetrahydroquinazolin-6-yl)acetamide] to CC[C@H]1CC[C@H](n2c(=O)[nH]c3ccc(NC(C)=O)cc3c2=O)CC1 [Example 56, N-(3-((1r,4r)-4-Ethylcyclohexyl)-2,4-dioxo-1,2,3,4-tetrahydroquinazolin-6-yl)acetamide], the IC50 falls from 0.178 mg/L (≈ 0.504 µM) to 0.015 mg/L (≈ 0.0455 µM) (12-fold).

Going from CC(=O)Nc1cnc2[nH]c(=O)n([C@H]3CC[C@@H](C(C)(C)C)CC3)c(=O)c2c1 [Example 34, N-[3-(cis-4-tert-Butyl-cyclohexyl)-2,4-dioxo-1,2,3,4-tetrahydro-pyrido[2,3-d]pyrimidin-6-yl)-acetamide] to CC(=O)Nc1ccc2[nH]c(=O)n([C@H]3CC[C@H](C(C)(C)C)CC3)c(=O)c2c1 [Example 49, N-(3-((1r,4r)-4-(tert-butyl)cyclohexyl)-2,4-dioxo-1,2,3,4-tetrahydroquinazolin-6-yl)acetamide], the IC50 falls from 0.36 mg/L (≈ 1 µM) to 0.008 mg/L (≈ 0.0224 µM) (45-fold).

Compared with CC(=O)Nc1ccc2[nH]c(=O)n([C@H]3CC[C@H](C(C)C)CC3)c(=O)c2c1 [Example 48, N-(3-((1r,4r)-4-Isopropylcyclohexyl)-2,4-dioxo-1,2,3,4-tetrahydroquinazolin-6-yl)acelamide], CC(=O)Nc1ccc2[nH]c(=O)n([C@H]3CC[C@H](C(C)(C)F)CC3)c(=O)c2c1 [Example 62, N-(3-((1r,4r)-4-(2-Fluoropropan-2-yl)cyclohexyl)-2,4-dioxo-1,2,3,4-tetrahydroquinazolin-6-yl)acetamide] is 52-fold higher in IC50: 0.018 mg/L (≈ 0.0524 µM) for the first, 0.933 mg/L (≈ 2.58 µM) for the second.

Compared with O=c1[nH]c2ccc(-c3cncnc3)cc2c(=O)n1CCC1CCCCC1 [Example 18, 3-(2-Cyclohexylethyl)-6-(pyrimidin-5-yl)quinazoline-2,4(1H,3H)-dione], CC(C)(C)[C@H]1CC[C@@H](n2c(=O)[nH]c3ncc(N)cc3c2=O)CC1 [Example 27, 6-Amino-3-((1 S,4S)-4-(tert-butyl)-cyclohexyl)pyrido[2,3-d]pyrimidine-2,4(1H.3H)-dione] is 17-fold lower in IC50: 4.93 mg/L (≈ 14.1 µM) for the first, 0.289 mg/L (≈ 0.913 µM) for the second.
